Patent US9597314B2, “Beta-lactamylalkanoic acids for treating premenstrual disorders” (AZEVAN PHARMACEUTICALS, INC., priority 2005, dated 2017)

Biological target: V1a (Homo sapiens, UniProt P37288)
Experiment: Human vasopression V1a receptor binding assay
Set-up: host or cells: CHO cells (hV1a cell line), whole adherent cells
Conditions: hV1a cell line (CHO); for IC50: 1 nM 3H-AVP, Table 17, read-out: V1a Binding Affinity (IC50 (nM)); for Ki: Table 18
Method in brief: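 Whole CHO cells stably expressing human V1a receptor competed 1 nM 3H-AVP against 10-fold serial compound dilutions (DMSO) in pH 7.0 Hepes/BSA/DMEM buffer, 45 min at 37° C.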

Chain of V1a (P37288 whole entry): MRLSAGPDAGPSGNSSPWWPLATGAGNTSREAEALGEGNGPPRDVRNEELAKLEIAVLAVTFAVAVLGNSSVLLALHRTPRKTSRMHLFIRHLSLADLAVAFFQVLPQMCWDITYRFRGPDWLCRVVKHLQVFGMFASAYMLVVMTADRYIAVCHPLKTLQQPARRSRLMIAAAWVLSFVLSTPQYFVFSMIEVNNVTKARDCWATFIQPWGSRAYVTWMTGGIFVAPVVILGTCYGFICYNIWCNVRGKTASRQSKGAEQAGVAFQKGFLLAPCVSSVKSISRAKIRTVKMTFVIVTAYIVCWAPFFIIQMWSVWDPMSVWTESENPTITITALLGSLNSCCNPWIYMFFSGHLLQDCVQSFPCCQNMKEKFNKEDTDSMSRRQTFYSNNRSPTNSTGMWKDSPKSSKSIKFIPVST

Row | Structure (SMILES) | IC50 | Ki
1 | O=C(NC1(c2ccccc2F)CCCC1)[C@H](CCC(=O)N1CCN(C2CCCCC2)CC1)N1C(=O)[C@@H](N2C(=O)OC[C@@H]2c2ccccc2)[C@H]1/C=C/c1ccccc1 [Example 221H] | 4 nM | 2.5 nM
2 | O=C(NC1CCCc2ccccc21)C(CCC(=O)N1CCN(C2CCCCC2)CC1)N1C(=O)C(N2C(=O)OCC2c2ccccc2)C1C=Cc1ccccc1 (single isomer, unassigned) [Example 214] | 1.86 nM | 1.14 nM
3 | CCN1CCN(C(=O)CC[C@@H](C(=O)NCc2cccc(C(F)(F)F)c2)N2C(=O)[C@@H](N3C(=O)OC[C@@H]3c3ccccc3)[C@H]2/C(Cl)=C/c2ccccc2)CC1 [Example 228] | 13.6 nM | 8.35 nM
4 | O=C(NCc1cccc(F)c1)[C@H](CCC(=O)N1CCN(C2CCCCC2)CC1)N1C(=O)[C@@H](N2C(=O)OC[C@@H]2c2ccccc2)[C@H]1/C=C/c1ccccc1 [Example 184] | < 10 nM | –
5 | COc1cc(CNC(=O)[C@H](CCC(=O)N2CCN(C3CCCCC3)CC2)N2C(=O)[C@@H](N3C(=O)OC[C@@H]3c3ccccc3)[C@H]2/C=C/c2ccccc2)cc(OC)c1 [Example 201] | 10.5 nM | 6.43 nM
6 | O=C(NCc1cccc(C(F)(F)F)c1)[C@@H](CC(=O)N1CCC(CN2CCCCC2)CC1)N1C(=O)[C@@H](N2C(=O)OC[C@@H]2c2ccccc2)[C@H]1/C=C/c1ccccc1 [Example 134G] | 6 nM | 3.7 nM
7 | O=C(NCc1cccc(C(F)(F)F)c1)C(C(=O)N1CCC(N2CCCCC2)CC1)N1C(=O)[C@@H](N2C(=O)OC[C@@H]2c2ccccc2)[C@H]1/C=C/c1ccccc1 (mixture of isomers) [Example 37] | – | 3.39 nM
8 | CCCCN1CCN(C(=O)CC[C@@H](C(=O)NCc2cccc(C(F)(F)F)c2)N2C(=O)[C@@H](N3C(=O)OC[C@@H]3c3ccccc3)[C@H]2/C=C/c2ccccc2)CC1 [Example 221AB] | < 10 nM | –
9 | CN(Cc1cc(Cl)cc(Cl)c1)C(=O)[C@H](CCC(=O)N1CCN(C2CCCCC2)CC1)N1C(=O)[C@@H](N2C(=O)OC[C@@H]2c2ccccc2)[C@H]1/C=C/c1ccccc1 [Example 221E] | 20.2 nM | 12.4 nM
10 | O=C(NCc1ccncc1)[C@H](CCC(=O)N1CCN(C2CCCCC2)CC1)N1C(=O)[C@@H](N2C(=O)OC[C@@H]2c2ccccc2)[C@H]1/C=C/c1ccccc1 [Example 210] | 29.5 nM | 18.1 nM
11 | CCN1CCN(C(=O)CC[C@@H](C(=O)N[C@@H]2CCCc3ccccc32)N2C(=O)[C@@H](N3C(=O)OC[C@@H]3c3ccccc3)[C@H]2/C=C/c2ccccc2)CC1 [Example 221BD] | 2.7 nM | 1.66 nM
12 | O=C(NC(CCO)c1ccccc1)[C@H](CCC(=O)N1CCN(C2CCCCC2)CC1)N1C(=O)[C@@H](N2C(=O)OC[C@@H]2c2ccccc2)[C@H]1/C=C/c1ccccc1 (stereo partly drawn) [Example 221Q] | 18.1 nM | 11.1 nM
13 | Cc1ccc(C2(NC(=O)[C@H](CCC(=O)N3CCN(C4CCCCC4)CC3)N3C(=O)[C@@H](N4C(=O)OC[C@@H]4c4ccccc4)[C@H]3/C=C/c3ccccc3)CCCC2)cc1 [Example 221AS] | ~20 nM | –
14 | CC(C)(C)OC(=O)N[C@@H]1CCN(C2CCN(C(=O)CC[C@@H](C(=O)NC3(c4ccccc4)CCCC3)N3C(=O)[C@@H](N4C(=O)OC[C@@H]4c4ccccc4)[C@H]3/C=C/c3ccccc3)CC2)C1 [Example 221AX] | 83 nM | 51 nM
15 | Cc1cc(C)cc(CNC(=O)[C@H](CCC(=O)N2CCN(C3CCCCC3)CC2)N2C(=O)[C@@H](N3C(=O)OC[C@@H]3c3ccccc3)[C@H]2/C=C/c2ccccc2)c1 [Example 199] | < 10 nM | –
16 | O=C(NCc1cccc(C(F)(F)F)c1)[C@H](CCC(=O)N1CCN(Cc2ccc3c(c2)OCO3)CC1)N1C(=O)[C@@H](N2C(=O)OC[C@@H]2c2ccccc2)[C@H]1/C=C/c1ccccc1 [Example 96] | – | 2.66 nM

Row | Structure (SMILES) | IC50 | Ki
17 | O=C(CC[C@@H](C(=O)N[C@@H]1CCCc2ccccc21)N1C(=O)[C@@H](N2C(=O)OC[C@@H]2c2ccccc2)[C@H]1/C=C/c1ccccc1)Nc1cnc2ccccc2c1 [Example 221AL] | ~100 nM | –
18 | Cc1ccc(C2(NC(=O)[C@H](CCC(=O)N3CCN(C4CCCCC4)CC3)N3C(=O)[C@@H](N4C(=O)OC[C@@H]4c4ccccc4)[C@H]3/C=C/c3ccccc3)CC2)cc1 [Example 221AP] | – | 3.8 nM
19 | O=C(NCc1cccc(C(F)(F)F)c1F)[C@H](CCC(=O)N1CCN(C2CCCCC2)CC1)N1C(=O)[C@@H](N2C(=O)OC[C@@H]2c2ccccc2)[C@H]1/C=C/c1ccccc1 [Example 180] | 0.33 nM | –
20 | O=C(NC1CCCc2ccccc21)C(CCC(=O)N1CCN(C2CCCCC2)CC1)N1C(=O)C(N2C(=O)OCC2c2ccccc2)C1C=Cc1ccccc1 (single isomer, unassigned) [Example 215] | 0.61 nM | 0.38 nM
21 | O=C(NCc1cc(C(F)(F)F)cc(C(F)(F)F)c1)[C@H](CCC(=O)N1CCN(C2CCCCC2)CC1)N1C(=O)[C@@H](N2C(=O)OC[C@@H]2c2ccccc2)[C@H]1/C=C/c1ccccc1 [Example 188] | 7.26 nM | –
22 | O=C(NCc1cccc(C(F)(F)F)c1)[C@@H](CCC(=O)N1CCN(CCc2ccccc2)CC1)N1C(=O)[C@@H](N2C(=O)OC[C@@H]2c2ccccc2)[C@H]1/C=C/c1ccccc1 [Example 136] | – | 33 nM
23 | O=C(C(COCc1ccccc1)N1C(=O)[C@@H](N2C(=O)OC[C@@H]2c2ccccc2)[C@H]1/C=C/c1ccccc1)N1CCN(C2CCCCC2)CC1 (mixture of isomers) [Example 232D] | 2.04 nM | 1.25 nM
24 | O=C(NCc1cccc(C(F)(F)F)c1)C(C(=O)NC1CCN(Cc2ccccc2)CC1)N1C(=O)[C@@H](N2C(=O)OC[C@@H]2c2ccccc2)[C@H]1/C=C/c1ccccc1 (mixture of isomers) [Example 39] | – | 13.3 nM
25 | COc1ccc(OC)c(CNC(=O)[C@H](CCC(=O)N2CCN(C3CCCCC3)CC2)N2C(=O)[C@@H](N3C(=O)OC[C@@H]3c3ccccc3)[C@H]2/C=C/c2ccccc2)c1 [Example 219] | 0.63 nM | 0.39 nM
26 | O=C(NC1(c2ccccc2)CCCCC1)[C@H](CCC(=O)N1CCN(C2CCCCC2)CC1)N1C(=O)[C@@H](N2C(=O)OC[C@@H]2c2ccccc2)[C@H]1/C=C/c1ccccc1 [Example 221G] | 1.5 nM | 0.93 nM
27 | COc1ccccc1CNC(=O)[C@H](CCC(=O)N1CCN(C2CCCCC2)CC1)N1C(=O)[C@@H](N2C(=O)OC[C@@H]2c2ccccc2)[C@H]1/C=C/c1ccccc1 [Example 220] | 5.3 nM | 3.26 nM
28 | O=C(NCc1cc(C(F)(F)F)ccc1F)[C@H](CCC(=O)N1CCN(C2CCCCC2)CC1)N1C(=O)[C@@H](N2C(=O)OC[C@@H]2c2ccccc2)[C@H]1/C=C/c1ccccc1 [Example 177] | 0.67 nM | –
29 | O=C(NCc1cccs1)[C@H](CCC(=O)N1CCN(C2CCCCC2)CC1)N1C(=O)[C@@H](N2C(=O)OC[C@@H]2c2ccccc2)[C@H]1/C=C/c1ccccc1 [Example 213] | 0.78 nM | 0.48 nM
30 | CN(Cc1ccccc1)C(=O)[C@H](CCC(=O)N1CCN(C2CCCCC2)CC1)N1C(=O)[C@@H](N2C(=O)OC[C@@H]2c2ccccc2)[C@H]1/C=C/c1ccccc1 [Example 196] | < 100 nM | –
31 | CN(Cc1cccc(Cl)c1Cl)C(=O)[C@H](CCC(=O)N1CCN(C2CCCCC2)CC1)N1C(=O)[C@@H](N2C(=O)OC[C@@H]2c2ccccc2)[C@H]1/C=C/c1ccccc1 [Example 221B] | 0.59 nM | 0.36 nM
